Legend:
TNF-α [1] = test: In vitro measurement of TNF-α in human PBMC (LPS stimulated); format: cell-based
Outline: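 Healthy-volunteer PBMC (0.5 million/well) in RPMI were pre-incubated with compound 15 min at 37 °C. They were then stimulated with E. coli B4 LPS 1 μg/ml for 18 h at 37 °C, 5% CO2. TNF-α in culture medium was measured by ELISA.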

IL-6 = test: In vitro measurement of IL-6 in human PBMC (LPS stimulated); format: cell-based
Outline: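 Human PBMC (0.5 million/well) pre-incubated with compound 15 min at 37 °C, then stimulated with E. coli LPS (1 μg/ml) for 18 h at 37 °C, 5% CO2. IL-6 in culture medium quantified by ELISA.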

Male wistar rats = test: Carrageenan induced paw edema test in rat; format: in vivo; conditions: oral, 3 hours after carrageenan
Procedure: Carrageenan Induced Paw Edema Test in Rat
The carrageenan paw edema test was performed as described by Winter et al (Proc. Soc. Exp. Biol. Med, 111, 544, 1962). Male wistar rats were selected with body weights equivalent within each group. The rats were fasted for 18 hours with free access to water. The rats were dosed orally with the test compound suspended in the vehicle containing 0.25% carboxymethylcellulose and 0.5% Tween 80. The control rats were administered with vehicle alone. After an hour, the rats were injected with 0.1 ml of 1% Carrageenan solution in 0.9% saline into the sub-plantar surface of the right hind paw. Paw volume was measured using digital plethysmograph before and after 3 hours of carrageenan injection. The average of foot swelling in drug treated animals was compared with that of the control animals. Anti-inflammatory activity was expressed as the percentage inhibition of edema compared with control group [Arzneim-Forsch/Drug Res., 43 (I), 1, 44-50, 1993; Representative results of edema inhibition are shown in the Table VI.

TNF-α [2] = test: LPS induced sepsis for measurement of TNF-α inhibition in mice; format: in vivo; conditions: 50 mg/kg, oral, mice, serum 90 minutes after LPS
Procedure: LPS Induced Sepsis for Measurement of TNF-α Inhibition in Mice
The LPS induced sepsis model in mice was performed as described by Les sekut et al (J Lab Clin Med 1994; 124:813-20). Female Swiss albino mice were selected and the body weights were equivalent within each group. The mice were fasted for 20 hours with free access to water. The mice were dosed orally with the test compound suspended in vehicle containing 0.5% Tween 80 in 0.25% Carboxy-methylcellulose sodium salt. The control mice were administered the vehicle alone. After 30 minutes of oral dosing, mice were injected with 500 μg of Lipopolysaccharide (Escherichia coli, LPS: B4 from Siga) in phosphate buffer saline solution into the intraperitoneal cavity of the mice. After 90 minutes of LPS administration mice were bled via retro-orbital sinus puncture. Blood samples were stored overnight at 4° C. Serum samples were collected by centrifuging the samples at 4000 rpm for 15 minutes at 4° C. Immediately the serum samples were analysed for TNF-α levels using commercially available mouse TNF-α ELISA kit (Amersham Biosciences) and assay was performed by the manufacturer instruction.
ED50 Measurement of TNF alpha Inhibition in Mice Sepsis Model

NCI-H460 = test: Anti-cancer screen (MTT), NCI-H460; format: cell-based; conditions: Homo sapiens, NCI-H460, 48 hours
Procedure: Experimental drugs are screened for anti-cancer activity in three cell lines for their GI50, TG1 and LC50 values (using 5 concentrations for each compound). The cell lines are maintained in DMEM containing 10% fetal bovine serum. 96 well microtiter plates are inoculated with cells in […] for 24 hours at 37° C., 5% CO2, 95% air and 100% relative humidity. 5000 HCT116 cells/well, 5000 NCIH460 cells/well, 10000 U251 cells/well and 5000 MDAMB231 cells/well are plated. A separate plate with these cell lines is also inoculated to determine cell viability before the addition of the compounds (T0).
Addition of Experimental Drugs
Following 24-hour incubation, experimental drugs are added to the 96 well plates. Each plate contains one of the above cell lines and the following in triplicate: 5 different concentrations (0.01, 0.1, 1, 10 and 100 μM) of 4 different compounds, appropriate dilutions of a cytotoxic standard and control (untreated) wells. Compounds are dissolved in dimethylsulfoxide (DMSO) to make 20 mM stock solutions, on the day of drug addition and frozen at −20° C. Serial dilutions of these 20 mM stock solutions are made in complete growth medium such that 100 μL of these drug solutions in medium, of final concentrations equaling 0.01, 0.1, 1, 10 and 100 μM can be added to the cells in triplicate. Standard drugs whose anti-cancer activity has been well documented and which are regularly used are doxorubicin and SAHA.
Cells are incubated with compounds for 48 hours followed by the addition of 10 μL 3-(4,5-Dimethyl-2-thiazolyl)-2,5-diphenyl-2H-tetrazolium (MTT) solution per well and a subsequent incubation at 37° C., 5% CO2, 95% air and 100% relative humidity, protected from light. After 4 hours, well contents are aspirated carefully followed by addition of 150 μL DMSO per well. Plates are agitated to ensure solution of the formazan crystals in DMSO and absorbance read at 570 nm.
Calculation of GI50, TGI and LC50
Percent growth is calculated for each compound's concentration relative to the control and zero measurement wells (T0; viability right before compound addition).
If a test well's O.D. value is greater than the T0 measurement for that cell line % Growth=(test−zero)/(control−zero)×100
If a test well's O.D. value is lower than the T0 measurement for that cell line, then % Growth=(test−zero)/zero×100 Plotting % growth versus experimental drug concentration, GI50 is the concentration required to decrease % growth by 50%; TGI is the concentration required to decrease % growth by 100% and LC50 is the concentration required to decrease % growth by 150%.

## CNS(=O)(=O)c1ccc(-c2c(Cl)nc(C(F)(F)F)nc2-c2ccc(S(C)(=O)=O)cc2)cc1 [Example 4, 4-{4-Chloro-6-[4-(methylsulfonyl)phenyl]-2-(trifluoromethyl)pyrimidin-5-yl}-N-methylbenzenesulfonamide]
TNF-α [1]; 1 μM, NA = No activity, read-out: TNF-α Inhibition (%) at Conc. (1 μM)
  inhibition at 1 µM: 30%
TNF-α [1]; 10 μM, read-out: TNF-α Inhibition (%) at Conc. (10 μM)
  inhibition at 10 µM: 107%
IL-6; 1 μM, read-out: IL-6 Inhibition (%) Conc. (1 μM)
  inhibition at 1 µM: 27.2%
IL-6; 10 μM, read-out: IL-6 Inhibition (%) Conc. (10 μM)
  inhibition at 10 µM: 100%
Male wistar rats
  Inhibition of edema (%) at 5 mg/kg: 17.12%
TNF-α [2]
  TNF-α Inhibition (%) at 50 mg/kg: 38.37%
NCI-H460
  GI50: 1.65 µM
other
  melting point: 226 to 230 °C

Reference: patent publication US7863446B2, “Heterocycles” (Orchid Research Laboratories Limited, priority 2006, dated 2011)
